In patent US8536196B2, “Substituted 1,3-dioxanes useful as PPAR modulators” (Evolva SA, priority 2007, dated 2013):

Experiments:
Format in all cases: cell-based
mPPARalphaLBD = target: T1, mPPARalphaLBD (Mus musculus, UniProt P23204); assay: PPARalpha transactivation assay
T1 construct: expressed in transfected cells
T1 sequence (P23204 239-466 limits assumed): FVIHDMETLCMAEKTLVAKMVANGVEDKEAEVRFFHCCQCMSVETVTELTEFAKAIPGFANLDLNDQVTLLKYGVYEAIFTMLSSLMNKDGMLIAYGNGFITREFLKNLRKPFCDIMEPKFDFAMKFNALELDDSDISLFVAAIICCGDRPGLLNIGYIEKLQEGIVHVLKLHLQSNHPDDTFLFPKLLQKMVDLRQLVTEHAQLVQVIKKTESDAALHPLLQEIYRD
Protocol: This example describes a transactivation assay for determining PPARalpha modulating activity.
DPD and other ligands are tested for their ability to transactivate PPARalpha essentially as described in Example 22.

HaCaT = assay: Proliferation of non-cancer cell line (flow cytometry); conditions: 20 μM, 48 hours of treatment
Protocol: A human cervical carcinoma cell line (HeLa) engineered to stably express a recombinant biosensor reporter activity and a non-cancer cell line, HaCaT (Boukamp et al., 1988, J. Cell Biol 106(3):761-771) was used with a Caspa Tag kit (commercially available eg from Chemicon). The detection of proliferation was carried out using a high content screening automated flow cytometer.
DPD (Substance 1) was diluted to 20 μM in cell culture medium without serum adjusted to 1% DMSO. Detection of cellular events was performed in duplicate in 96-well plates after 48 hours of treatment in the FL2 (dilution of a proliferative marker) channels of a HTS flow cytometer (FACS Calibur HTS, Becton Dickenson). At day 1, cells were seeded in 96 well plates. Cells were treated with DPD and the appropriate controls on day 2 and analysis was carried out on day 4.

3T3-L1 cells = assay: Inhibition of adipocyte differentiation assay (Oil Red O staining)
Protocol: To test compounds as inhibitors of adipocyte differentiation, 3T3-L1 cells are grown as above until two-day postconfluence (designated day 0), after which the cells are induced to differentiate with DMEM containing 10% fetal bovine serum (FBS), 1 μM dexamethasone (Sigma), 0.5 mM methylisobutylxanthine (Sigma), 1 μg/ml insulin (Roche Molecular Biochemicals) and the test-compound. Cells induced to differentiate in presence of solvent of the test-compounds are used as positive control. After 48 h, the cells are re-fed with DMEM containing 10% FBS supplemented with the test compound or the positive control. From day 4, cells are grown in DMEM with 10% FBS and are changed every second day until day 8. At day 8, cells are stained with Oil Red O as described below.
Cells cultured as described above are used for Oil Red staining. Dishes are washed in PBS and cells were fixed in 3.7% paraformaldehyde for 1 h and stained with oil red O as described in (Hansen et al 1999). Oil red O solution stock solution is prepared by dissolving 0.5 g of Oil Red O (Sigma) in 100 mL of isopropanol. Oil re 0 working solution is prepared by diluting a stock solution with water (6:4) followed by filtration.

human pre-adipocytes = assay: Adipocyte differentiation assay using human pre-adipocytes
Gal4-PPARgammaLBD = target: T2, Gal4-PPARgammaLBD (Homo sapiens, UniProt P37231); assay: PPARgamma transactivation assay (Gal4-PPARgammaLBD, UASx4-TK-luc reporter); conditions: 10 μM
T2 construct: expressed in transfected cells; host or cells: mouse embryonic fibroblasts (MEFs) or ME3 cells
T2 sequence (P37231 204-505): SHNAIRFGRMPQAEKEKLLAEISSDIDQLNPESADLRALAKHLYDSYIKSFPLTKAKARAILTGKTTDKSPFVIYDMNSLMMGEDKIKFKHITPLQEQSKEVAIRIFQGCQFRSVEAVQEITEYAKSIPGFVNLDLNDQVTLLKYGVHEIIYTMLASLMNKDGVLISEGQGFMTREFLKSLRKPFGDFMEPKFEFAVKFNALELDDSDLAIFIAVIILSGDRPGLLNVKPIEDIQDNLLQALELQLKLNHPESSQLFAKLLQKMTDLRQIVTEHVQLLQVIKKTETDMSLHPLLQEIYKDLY
Description: This is an example of a transactivation assay for determining PPAR gamma modulating activity.
The UASx-4-TK-luc reporter construct (where UAS refers to “upstream activator sequence”) contains four Gal4-responsive elements. The plasmid Gal4-PPARgammaLBD encodes a Gal4-DBD-PPARgamma-LBD fusion protein (i.e. the DNA-binding domain, DBD, of Gal4 fused to the ligand-binding domain, LBD, of PPARgamma) capable of transactivating the UASx-4-TK-luc reporter plasmid by binding to the UAS. The CMV-beta-galactosidase plasmid (where CMV is cytomegalovirus) is used for normalization of experimental values.
The cells were replated, typically in 24 well plates, so that at the time of transfection the cells are 50-70% confluent.
Briefly, per well in a 24 well plate, UASx4TKIuc (0.2 μg) Gal4-PPARgammaLBD (or pM-hPPARgamma-LBD; 0.1 μg) and CMV-beta-galactosidase (0.05 μg) in 30 μL DMEM (free of serum and antibiotics) is mixed with 30 μL DMEM (free of serum and antibiotics) containing 1 μL metafectenein. The mixture is incubated at room temperature for 20 min to allow formation of nucleic acid-lipid complexes and then approximately 60 μL is added to each well containing the 50-60% confluent cells. […] Cells were harvested after 12-24 hours and luciferase and beta-galactosidase activities were measured according to standard protocols.
“−” means that testing was not performed.

increase in PPARalpha transactivation (mPPARalphaLBD): no transactivation
PPAR transactivation higher than with DMSO alone (Gal4-PPARgammaLBD): about 10 fold
SMILES: O=C(O)CC/C=C\CC1COC(c2ccccc2Cl)OC1c1ccccc1O (racemic) [SN1, (Z)-6-(-2-(2-chlorophenyl)-4-(2-hydroxyphenyl)-1,3-dioxan-5-yl)hex-4-enoic acid]
effect on non-cancer cell line HaCaT (HaCaT): no effect
inhibition of adipocyte differentiation (3T3-L1 cells): no significant effect
red staining (Oil Red O), human pre-adipocytes (human pre-adipocytes): very little red staining, similar to DMSO
